Read-outs that look alike come from different tables or passages of the source.
Legend:
BACE2 = BACE2 (Homo sapiens (Human), UniProt Q9Y5Z0); assay: In vitro enzymatic BACE2 FRET assay; format: biochemical
From the text: (§1) In Vitro Enzymatic BACE1 and BACE2 FRET (Fluorescence Resonance Energy Transfer) Assays (Enzyme Assay Data in Table 1)

BACE1 [1] = target: T1, BACE1 (Homo sapiens (Human), UniProt P56817); assay: In vitro enzymatic BACE1 FRET assay; format: biochemical
Target sequence in this assay (P56817 46-501): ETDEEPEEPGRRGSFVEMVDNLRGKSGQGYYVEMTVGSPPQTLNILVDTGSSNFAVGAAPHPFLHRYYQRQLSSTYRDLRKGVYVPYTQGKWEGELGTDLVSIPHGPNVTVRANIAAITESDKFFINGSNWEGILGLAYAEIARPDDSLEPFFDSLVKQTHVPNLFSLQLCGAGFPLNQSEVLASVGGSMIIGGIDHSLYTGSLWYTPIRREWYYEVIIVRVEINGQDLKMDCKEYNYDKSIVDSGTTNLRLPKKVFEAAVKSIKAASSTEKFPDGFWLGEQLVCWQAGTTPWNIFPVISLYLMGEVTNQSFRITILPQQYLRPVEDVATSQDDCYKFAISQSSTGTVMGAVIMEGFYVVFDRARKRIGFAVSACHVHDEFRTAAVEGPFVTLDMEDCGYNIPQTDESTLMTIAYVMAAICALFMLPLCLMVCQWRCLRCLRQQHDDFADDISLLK
From the text: as §1

BACE1 [2] = target: T1, BACE1; assay: BACE1 cell assay; format: cell-based
Target sequence in this assay (P56817 46-501, species assumed): as the sequence (P56817 46-501) above

Cathepsin D (CatD) = Cathepsin D (CatD) (Homo sapiens (Human), UniProt P07339); assay: CatD assay; format: biochemical; settings: read-out: IC50 IP (μM) CatD
[3] = read-out: IC50 IP (μM) BACE2 Enzyme
[4] = read-out: IC50 IP (μM) BACE1 Enzyme
[5] = read-out: IC50 IP (μM) BACE1 Cell

BACE2, sequence (Q9Y5Z0 63-518): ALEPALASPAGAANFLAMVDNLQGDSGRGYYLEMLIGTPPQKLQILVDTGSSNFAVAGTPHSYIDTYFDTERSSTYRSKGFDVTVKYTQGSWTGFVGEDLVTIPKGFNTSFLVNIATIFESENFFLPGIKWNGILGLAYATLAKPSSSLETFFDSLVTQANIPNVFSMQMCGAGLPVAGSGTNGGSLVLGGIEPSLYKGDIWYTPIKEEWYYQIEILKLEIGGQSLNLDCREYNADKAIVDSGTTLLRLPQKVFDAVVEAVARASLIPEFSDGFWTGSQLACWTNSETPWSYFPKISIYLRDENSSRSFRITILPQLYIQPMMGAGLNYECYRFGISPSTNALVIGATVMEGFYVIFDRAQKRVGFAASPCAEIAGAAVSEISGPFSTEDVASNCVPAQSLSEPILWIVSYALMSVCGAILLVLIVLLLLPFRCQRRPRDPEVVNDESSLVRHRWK
Cathepsin D (CatD), sequence (P07339 65-412, species assumed): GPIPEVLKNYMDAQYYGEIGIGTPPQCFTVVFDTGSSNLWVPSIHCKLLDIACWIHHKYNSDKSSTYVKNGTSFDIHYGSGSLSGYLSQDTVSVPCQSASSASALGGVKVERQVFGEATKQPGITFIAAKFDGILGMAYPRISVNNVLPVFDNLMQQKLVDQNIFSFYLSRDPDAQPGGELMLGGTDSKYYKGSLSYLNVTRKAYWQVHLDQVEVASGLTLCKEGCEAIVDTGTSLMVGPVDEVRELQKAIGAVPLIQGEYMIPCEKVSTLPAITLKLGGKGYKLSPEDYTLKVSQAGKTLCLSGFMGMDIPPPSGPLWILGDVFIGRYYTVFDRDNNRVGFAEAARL

| SMILES | IC50 (BACE2; [3]) [µM] | IC50 (BACE1 [1]; [4]) [µM] | IC50 (BACE1 [2]; [5]) [µM] | IC50 (Cathepsin D (CatD)) [µM] | IC50 (BACE2) [µM] | IC50 (BACE1 [1]) [µM] | IC50 (BACE1 [2]) [µM] |
| --- | --- | --- | --- | --- | --- | --- | --- |
| C[C@@H]1CCN1C(=O)[C@]12C[C@H]1[C@@](C)(c1cc(/C=C(\F)c3ccc(Cl)cn3)ccc1F)N=C(N)S2 [Example 120, ((1S,5S,6S)-3-amino-5-(5-((Z)-2-(5-chloropyridin-2-yl)-2-fluorovinyl)-2-fluorophenyl)-5-methyl-2-thia-4-azabicyclo[4.1.0]hept-3-en-1-yl)((R)-2-methylazetidin-1-yl)methanone] | 0.0108 | 0.00275 | 0.0267 | 132 | – | – | – |
| C[C@]1(c2cc(/C=C(\F)c3ccc(C#N)cn3)ccc2F)N=C(N)S[C@@]2(C(=O)N3CCOC[C@@H]3CO)C[C@H]21 [Example 335] | – | – | – | 148 | 0.186 | 0.0028 | 0.0026 |
| C[C@]1(c2cc(/C=C(\F)c3ccc(C#N)cn3)cnc2F)N=C(N)S[C@@]2(C(=O)NCC(F)F)C[C@H]21 [Example 281, (1S,5S,6S)-3-amino-5-(5-((Z)-2-(5-cyanopyridin-2-yl)-2-fluorovinyl)-2-fluoropyridin-3-yl)-N-(2,2-difluoroethyl)-5-methyl-2-thia-4-azabicyclo[4.1.0]hept-3-ene-1-carboxamide] | 0.164 | 0.0214 | – | 269 | – | – | 0.0542 |
| C[C@]1(c2cc(/C=C(\F)c3ccc(C#N)cn3)ccc2F)N=C(N)S[C@@]2(C(=O)N3CCCC3)C[C@H]21 [Example 107, 6-((Z)-2-(3-((1S,5S,6S)-3-amino-5-methyl-1-(pyrrolidine-1-carbonyl)-2-thia-4-azabicyclo[4.1.0]hept-3-en-5-yl)-4-fluorophenyl)-1-fluorovinyl)nicotinonitrile] | – | 0.000673 | 0.00384 | 396 | – | – | – |
| COC(=O)[C@]12C[C@H]1[C@@](C)(c1cc(/C=C(\F)c3cnc(Cl)cn3)ccc1F)N=C(N)S2 [Example 149, (1S,5S,6S)-methyl 3-amino-5-(5-((Z)-2-(5-chloropyrazin-2-yl)-2-fluorovinyl)-2-fluorophenyl)-5-methyl-2-thia-4-azabicyclo[4.1.0]hept-3-ene-1-carboxylate] | 0.206 | 0.0352 | 0.883 | – | – | – | – |
| C[C@]1(c2cc(/C=C(\F)c3cnc(C#N)cn3)ccc2F)N=C(N)S[C@@]2(C(=O)N3CCCC3)C[C@H]21 [Example 204, 5-((Z)-2-(3-((1S,5S,6S)-3-amino-5-methyl-1-(pyrrolidine-1-carbonyl)-2-thia-4-azabicyclo[4.1.0]hept-3-en-5-yl)-4-fluorophenyl)-1-fluorovinyl)pyrazine-2-carbonitrile] | 0.048 | 0.001 | – | – | – | – | 0.003 |
| C[C@]1(c2cc(/C=C(\F)c3cnc(C#N)cn3)ccc2F)N=C(N)S[C@@]2(C(=O)N3CC[C@@H](F)C3)C[C@H]21 [Example 203, 5-((Z)-2-(3-((1S,5S,6S)-3-amino-1-((R)-3-fluoropyrrolidine-1-carbonyl)-5-methyl-2-thia-4-azabicyclo[4.1.0]hept-3-en-5-yl)-4-fluorophenyl)-1-fluorovinyl)pyrazine-2-carbonitrile] | 0.045 | 0.001 | 0.001 | – | – | – | – |
| CN(C)C(=O)[C@]12C[C@H]1[C@@](C)(c1cc(/C=C(\F)c3cnc(C#CC4CC4)cn3)ccc1F)N=C(N)S2 [Example 159, (1S,5S,6S)-3-amino-5-(5-((Z)-2-(5-(cyclopropylethynyl)pyrazin-2-yl)-2-fluorovinyl)-2-fluorophenyl)-N,N,5-trimethyl-2-thia-4-azabicyclo[4.1.0]hept-3-ene-1-carboxamide] | – | 0.000856 | – | 71.9 | – | – | 0.0166 |
| C#CCOc1cnc(/C(F)=C/c2ccc(F)c([C@@]3(C)N=C(N)S[C@@]4(C(=O)N5CC[C@@H](F)C5)C[C@H]43)c2)cn1 [Example 297, ((1S,5S,6S)-3-amino-5-(2-fluoro-5-((Z)-2-fluoro-2-(5-(prop-2-yn-1-yloxy)pyrazin-2-yl)vinyl)phenyl)-5-methyl-2-thia-4-azabicyclo[4.1.0]hept-3-en-1-yl)((R)-3-fluoropyrrolidin-1-yl)methanone] | 0.041 | 0.0009 | 0.0004 | – | – | – | – |
| C#Cc1cnc(/C(F)=C/c2ccc(F)c([C@@]3(C)N=C(N)S[C@@]4(C(=O)N5CCOCC5)C[C@H]43)c2)cn1 [Example 350, ((1S,5S,6S)-3-amino-5-(5-((Z)-2-(5-ethynylpyrazin-2-yl)-2-fluorovinyl)-2-fluorophenyl)-5-methyl-2-thia-4-azabicyclo[4.1.0]hept-3-en-1-yl)(morpholino)methanone] | 0.046 | 0.004 | 0.04 | – | – | – | – |
| C#CCOc1cnc(/C(F)=C/c2ccc(F)c([C@@]3(C)N=C(N)S[C@@]4(C(N)=O)C[C@H]43)c2)cn1 [Example 239, (1S,5S,6S)-3-amino-5-(2-fluoro-5-((Z)-2-fluoro-2-(5-(prop-2-yn-1-yloxy)pyrazin-2-yl)vinyl)phenyl)-5-methyl-2-thia-4-azabicyclo[4.1.0]hept-3-ene-1-carboxamide] | 0.177 | 0.0013 | – | – | – | – | 0.0029 |
| C#CCOc1cnc(/C(F)=C/c2ccc(F)c([C@@]3(C)N=C(N)S[C@@]4(C(=O)N5CC[C@H](F)C5)C[C@H]43)c2)cn1 [Example 303, ((1S,5S,6S)-3-amino-5-(2-fluoro-5-((Z)-2-fluoro-2-(5-(prop-2-yn-1-yloxy)pyrazin-2-yl)vinyl)phenyl)-5-methyl-2-thia-4-azabicyclo[4.1.0]hept-3-en-1-yl)((S)-3-fluoropyrrolidin-1-yl)methanone] | 0.093 | 0.0004 | 0.0005 | – | – | – | – |
| C[C@]1(c2cc(/C=C(\F)c3ccc(C#N)cn3)ccc2F)N=C(N)S[C@@]2(C(=O)N3CCO[C@H]4C[C@H]43)C[C@H]21 [Example 311, 6-((Z)-2-(3-((1S,5S,6S)-3-amino-1-((1S,6R)-2-oxa-5-azabicyclo[4.1.0]heptane-5-carbonyl)-5-methyl-2-thia-4-azabicyclo[4.1.0]hept-3-en-5-yl)-4-fluorophenyl)-1-fluorovinyl)nicotinonitrile] | 0.048 | 0.0018 | 0.0015 | – | – | – | – |
| Cc1cc(C#N)cnc1/C(F)=C/c1ccc(F)c([C@@]2(C)N=C(N)S[C@@]3(C(=O)N4CCOCC4)C[C@H]32)c1 [Example 160, 6-((Z)-2-(3-((1S,5S,6S)-3-amino-5-methyl-1-(morpholine-4-carbonyl)-2-thia-4-azabicyclo[4.1.0]hept-3-en-5-yl)-4-fluorophenyl)-1-fluorovinyl)-5-methylnicotinonitrile] | 0.0891 | 0.00734 | – | – | – | – | 0.0149 |
| COC[C@]12C[C@H]1[C@@](C)(c1cc(/C=C(\F)c3ccc(Cl)cn3)ccc1F)N=C(N)S2 [Example 286, (1S,5S,6S)-5-(5-((Z)-2-(5-chloropyridin-2-yl)-2-fluorovinyl)-2-fluorophenyl)-1-(methoxymethyl)-5-methyl-2-thia-4-azabicyclo[4.1.0]hept-3-en-3-amine] | 0.069 | 0.0712 | 0.346 | – | – | – | – |
| C[C@]1(c2cc(/C=C(\F)c3ccc(C#N)cn3)ccc2F)N=C(N)S[C@@]2(C(=O)N3CC[C@@H](O)C3)C[C@H]21 [Example 333, 6-((Z)-2-(3-((1S,5S,6S)-3-amino-1-((R)-3-hydroxypyrrolidine-1-carbonyl)-5-methyl-2-thia-4-azabicyclo[4.1.0]hept-3-en-5-yl)-4-fluorophenyl)-1-fluorovinyl)nicotinonitrile] | 0.053 | 0.0008 | 0.0007 | – | – | – | – |
| C[C@]1(c2cc(/C=C(\F)c3ccc(C#N)cn3)ccc2F)N=C(N)S[C@@]2(C(=O)N3CCCC(F)(F)C3)C[C@H]21 [Example 324, 6-((Z)-2-(3-((1S,5S,6S)-3-amino-1-(3,3-difluoropiperidine-1-carbonyl)-5-methyl-2-thia-4-azabicyclo[4.1.0]hept-3-en-5-yl)-4-fluorophenyl)-1-fluorovinyl)nicotinonitrile] | 0.019 | 0.0011 | 0.0031 | – | – | – | – |
| C[C@]1(c2cc(/C=C(\F)c3ccc(C#N)cn3)ccc2F)N=C(N)S[C@@]2(C(=O)N3CC[C@H](O)C3)C[C@H]21 [Example 125, 6-((Z)-2-(3-((1S,5S,6S)-3-amino-1-((S)-3-hydroxypyrrolidine-1-carbonyl)-5-methyl-2-thia-4-azabicyclo[4.1.0]hept-3-en-5-yl)-4-fluorophenyl)-1-fluorovinyl)nicotinonitrile] | 0.0364 | 0.000592 | 0.000986 | – | – | – | – |
| COC(=O)[C@]12C[C@H]1[C@@](C)(c1cc(/C=C(\F)c3cnc(OCc4ncco4)cn3)ccc1F)N=C(N)S2 [Example 150, (1S,5S,6S)-methyl 3-amino-5-(2-fluoro-5-((Z)-2-fluoro-2-(5-(oxazol-2-ylmethoxy)pyrazin-2-yl)vinyl)phenyl)-5-methyl-2-thia-4-azabicyclo[4.1.0]hept-3-ene-1-carboxylate] | 2.42 | 0.0535 | 0.379 | – | – | – | – |
| C[C@]1(c2cc(/C=C(\F)c3ccc(C#N)cn3)cnc2F)N=C(N)S[C@@]2(C(=O)N3CCC(F)(F)C3)C[C@H]21 [Example 259, 6-((Z)-2-(5-((1S,5S,6S)-3-amino-1-(3,3-difluoropyrrolidine-1-carbonyl)-5-methyl-2-thia-4-azabicyclo[4.1.0]hept-3-en-5-yl)-6-fluoropyridin-3-yl)-1-fluorovinyl)nicotinonitrile] | 0.113 | 0.0095 | 0.0309 | – | – | – | – |
| C[C@]1(c2cc(/C=C(\F)c3ccc(C#N)cn3)ccc2F)N=C(N)S[C@@]2(C(=O)N3CCO[C@@H]4C[C@@H]43)C[C@H]21 (single isomer, unassigned) [Example 312] | 0.068 | 0.0012 | 0.0008 | – | – | – | – |

Reference: US10246429B2, “Vinyl fluoride cyclopropyl fused thiazin-2-amine compounds as beta-secretase inhibitors and methods of use” (AMGEN INC., priority 2015, dated 2019)
